Experiments:
[1] = tested on: Escherichia coli; assay: Inhibition of the growth of Escherichia coli; type: cell-based; conditions: 0.1625 μM to 10 μM, 18 hours at 37° C., OD595
Method: A single E. coli colony was used to inoculate 5 ml of Luria-Bertani media and grown overnight at 37° C. The following day, the optical density of the culture was measured and the E. coli diluted to an optical density at 600 nm (OD600) of 0.01 in Mueller-Hinton Broth. Diluted E. coli were added to 96-well plates with defensins at concentrations of 10 μM, 5 μM, 2.5 μM, 1.25 μM, 0.625 μM, 0.3125 μM or 0.1625 μM. Plates were read at OD595 to obtain time zero data points. Plates were incubated at 37° C. for 18 hours before reading again at OD595 to assess the amount of E. coli growth.

[2] = tested on: C. albicans; assay: Antifungal growth inhibition assay in 96 well microtitre plates (A595); type: cell-based, Candida albicans
Method: (§1) The inhibitory effects of the plant defensins on the growth of Trichophyton rubrum, T. interdigitale, Microsporum fulvum and C. albicans (obtained from the National Mycology Reference Centre, South Australia Pathology at the Women's and Children's Hospital, Adelaide, Australia) are measured essentially as described by Broekaert et al. (1990) FEMS Microbiol Lett 69:55-59. Spores of T. rubrum, T. interdigitale and M. fulvum are isolated from sporulating fungus growing on 1⁄2 strength Sabouraud dextrose agar (SDA). Spores were removed from the plates by the addition of 1⁄2 strength potato dextrose broth (PDB). C. albicans cells are grown in Yeast Peptone Broth (YPD) for 16 h. Spore and cell concentrations are measured using a hemocytometer. Antifungal assays are conducted in 96 well microtitre plates essentially as herein described. Wells are loaded with 20 μm L of filter sterilized (0.22 μm syringe filter, Millipore) defensin (10× stock for each final concentration) or water and 80 μm L of 5×10^4 spores/mL (T. rubrum, T. interdigitale, M. fulvum) or 5,000 cells/mL (C. albicans) in 1⁄2 strength PDB. The plates are incubated at 30° C. Fungal growth is assayed by measuring optical density at 595 nm ([…]) using a microtitre plate reader (SpectraMax Pro M2; Molecular Devices. Growth is allowed to proceed until the optical density (OD) of the fungus in the absence of any test defensin reached an OD of 0.2. Each test is performed in duplicate.

[3] = tested on: Human monocytic lymphoma (U937) cells; type: cell-based
Method: Human monocytic lymphoma (U937) cells are cultured in RPMI-1640 medium. All culture media are supplemented with 5-10% v/v fetal calf serum, 100 U/ml of penicillin, and 100 μg/ml of streptomycin. Cell lines are cultured at 37° C. in a humidified atmosphere containing 5% v/v CO2. Adherent cell lines are detached from the flask by adding a mixture containing 0.25% v/v trypsin and […] EDTA. A flow cytometry-based propidium iodide (PI) uptake assay is performed to analyze the ability of plant defensins to permeabilize U937 cells (essentially as described in Poon et al, 2014). Briefly, cells are suspended to 1×10^6 cells/ml in 0.1% v/v BSA/RPMI-1640 and incubated with plant defensins (10 μM) at 37° C. for 30 min Samples are added to PBS containing a final concentration of 1 μg/ml PI and placed on ice. Samples are then analyzed immediately using the BD FACSCanto II Flow Cytometer and BD FACSDiva software v6.1.1. The resultant flow cytometry data is analyzed using FlowJo software v8.8.6. Cells are gated appropriately based on forward scatter and side scatter and cell permeabilization is defined by PI-positive staining.

[4] = Penetration through human nails (nail adapter, wetted cotton bud receptor, RP-HPLC); type: in vitro ADME
Method: Penetration of NaD1 through human nails was measured according to the method of Hui et al. (2002) J Pharm Sci 91(1):189-195. Human toenails were obtained from ScienceCare (USA) and washed with phosphate buffered saline (details, PBS) before being placed on a kimwipe that had been soaked in PBS for 3 h to rehydrate the nail. […]
The cotton bud in contact with the underside of the nail was removed after 24 h and every 24 h following. Protein that had passed through the nail was recovered from the cotton bud by washing twice with 500 μL of 0.1% v/v trifluoroacetic acid. Recovered protein was quantified using RP-HPLC.

[5] = tested on: clinical isolates of T. rubrum; assay: Cell survival assay for clinical isolates of T. rubrum (plating after incubation); type: cell-based, Trichophyton rubrum; conditions: incubated with 100 µg/mL HXL008 for 72 h, plated on Sabouraud dextrose agar, 5 days at 30° C.
Method: After incubation for 72 h, the media from wells containing clinical isolates of T. rubrum incubated with 100 […] HXL008 was plated onto fresh Sabouraud dextrose agar. Plates were incubated at 30° C. for 5 days to allow colonies to develop before being photographed.

[6] = tested on: Microsporum fulvum; assay: Antifungal growth inhibition assay in 96 well microtitre plates (A595); type: cell-based
Method: as §1

[7] = tested on: Trichophyton rubrum; assay: as above; type: cell-based
Method: as §1

[8] = tested on: Trichophyton rubrum; assay: Inhibition of the growth of Trichophyton rubrum over 28 days; type: cell-based
Method: The inhibitory effect of HXL008 on the growth of Trichophyton rubrum (obtained from the National Mycology Reference Centre, South Australia Pathology at the Women's and Children's Hospital, Adelaide, Australia) was monitored over 28 days.
Spores of T. rubrum, are isolated from sporulating fungus growing on ½ strength Sabouraud dextrose agar. Spores are removed from the plates by the addition of ½ strength potato dextrose broth (PDB). Spore and cell concentrations are measured using a hemocytometer.
Spores were diluted to a concentration of 5×10^4 spores/mL in ½ PBD (2 mL) containing 0, 10 or 50 μg/mL HXL008. Cultures are incubated at 30 C without shaking. After 24 h, 100 μL of each culture is extracted and plated onto ½ SDA plates. An additional 100 uL of ½ PDB is then added containing either 0, 20 or 100 μg of HXL008. SDA plates are then incubated at 30 C for 5 days. This process is repeated every 24 h for 28 days. After 15 days, the culture containing no HXL008 becomes too thick to pipette and is no longer used in the assay.

[9] = tested on: Trichophyton rubrum, T. interdigitale, Microsporum fulvum and C. albicans; assay: Inhibition assays, summary across the range of fungal pathogens; type: cell-based; conditions: summary of Table 3
Method: as §1

[10] = tested on: T. interdigitale; assay: Antifungal growth inhibition assay in 96 well microtitre plates (A595); type: cell-based, Trichophyton interdigitale
Method: as §1

| Substance | Inhibition of growth of E. coli [1] | IC50 against C. albicans [2] [µg/mL] | Cells permeabilized (PI-positive) [3] | Nail penetration [4] | Surviving colonies on agar plates [5] | IC50 against M. fulvum [6] [µg/mL] | IC50 against T. rubrum [7] [µg/mL] | Visible growth of T. rubrum in culture ([8]; 10 μg/mL or 50 μg/mL, over the duration of the assay (28 days)) | T. rubrum cells killed ([8]; 50 μg/mL, within 24 h) | T. rubrum cells dead ([8]; after 20 days of treatment) | Surviving colonies per plate ([8]; after 20 days of treatment, 100 μL of culture plated) [colony] | Antifungal activity across the range of fungal pathogens [9] | IC50 against T. interdigitale [10] [µg/mL] |
| --- | --- | --- | --- | --- | --- | --- | --- | --- | --- | --- | --- | --- | --- |
| LL37: human antimicrobial peptide used as a control (LLGDFFRKSKEKIGKEFKRIVQRIKDFLRNLVPRTES; Antibacterial peptide LL-37; UniProt P49913 134-170, looked up) [reference compound] | inhibited the growth of E. coli in a concentration dependent manner |  |  |  |  |  |  |  |  |  |  |  |  |
| HXL008: Class I plant defensin from Picramnia pentandra, SEQ ID NO:1 (KVCTKPSKFFKGLCGTDGACTTACRKEGLHSGYCQLKGFLNSVCVCRKHC; HXL008 Picramnia pentandra) | did not inhibit growth of E. coli at the concentrations tested | 20 | less than 2% | able to penetrate nails faster and more effectively than the active ingredients of current topical onychomycosis therapies | 1-3 colonies | 7 | 3 | did not display any visible growth | more than 80% | more than 99.5% | ≤ 1 | the most effective plant defensins across the range of fungal pathogens | 3.5 |
| HXL004: Class I plant defensin from Nicotiana benthamiana, SEQ ID NO:7 (Table 1) (RTCESQSHRFKGLCFSRSNCASVCHTEGFNGGHCRGFRRRCFCTRHC; HXL004 Nicotiana benthamiana) | inhibited the growth of E. coli in a concentration dependent manner | 20 | 13% | able to penetrate nails faster and more effectively than the active ingredients of current topical onychomycosis therapies |  | 12 | 27.5 |  |  |  |  | intermediate activity | 19 |
| NaD1: Solanaceous Class II plant defensin from Nicotiana alata, SEQ ID NO:18 (RECKTESNTFPGICITKPPCRKACISEKFTDGHCSKILRRCLCTKPC; NaD1 Nicotiana alata) | did not inhibit growth of E. coli at the concentrations tested | 20 | 33% | able to penetrate nails faster and more effectively than the active ingredients of current topical onychomycosis therapies |  | 5.3 | 8 |  |  |  |  |  | 10 |

Reference: patent US10010576B2, “Method of treatment” (Hexima Limited, priority 2014, dated 2018)
